Activity calls are given as the source filed them.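 How the source made its calls: active means AC50, the dose giving half-maximal effect, exceeds a fixed cutoff for a compound that rescues yeast growth under heat; inactive means the rest, inconclusive results apart.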
test system: S. cerevisiae Burl-1 ts mutant growth, BacTiter-Glo, 38.5C 24 h; assay: restored growth of temperature-sensitive Burl-1 yeast – whole organism, S. cerevisiae, Burl-1 ts mutant, luminescence, counter-screen for SUMOylation pathway inhibitor project, dose response (AID 463199)

| Structure (SMILES) | AC50 |
| --- | --- |
| COc1c(C)cc(S(=O)(=O)NC2CC(C)(C)NC(C)(C)C2)c(C)c1C | > 42 µM (inactive) |
| Cc1ccc(NC(=S)NNC(=O)c2ccc(N3CCOCC3)c([N+](=O)[O-])c2)cc1C | > 42 µM (inactive) |
| CC1CCCCC1N=CC1=C(O)CC(C)(C)CC1=O (stereo not given) | > 42 µM (inactive) |
| CCc1nnc(NC(=O)CSc2ccc(-c3ccc(-n4cccn4)cc3)nn2)s1 | > 42 µM (inactive) |
| Nc1cc(-c2ccc(Cl)cc2)nn1S(=O)(=O)c1ccc(Cl)cc1 | > 42 µM (inactive) |
| CC(C)(C)C(=O)C(Cl)C(=O)Nc1ccccc1 (stereo not given) | > 42 µM (inactive) |
| Cc1ccnc(NC(=O)CC(c2ccccc2)c2ccccc2)n1 | > 42 µM (inactive) |
| COc1ccc(/C=C(\C#N)C(=O)c2cccn2C)cc1 | > 42 µM (inactive) |
| COc1cccc(-n2nnc3c(=O)n(CC(=O)N4CCCc5ccccc54)cnc32)c1 | > 42 µM (inactive) |
| O=C(c1cn(-c2ccccc2)nc1-c1cccs1)N1CCOCC1 | > 42 µM (inactive) |
| Cc1sc(NC(=O)c2ccc(F)cc2)c(CN2CCCCCC2)c1C | > 42 µM (inactive) |
| Cn1cc(C(=O)Cc2ccccc2)c2ccccc21 | > 42 µM (inactive) |
| CN1/C(=C\C(=O)COC(=O)c2ccc([N+](=O)[O-])o2)C(C)(C)c2ccccc21 | > 42 µM (inactive) |
| Cc1ccc(Oc2ccc(OCC(=O)Nc3ccncc3)cc2)cc1 | > 42 µM (inactive) |
| Cn1c(=NC(=O)COc2ccccc2)sc2cc(F)cc(F)c21 | > 42 µM (inactive) |
| O=c1c2ccccc2ncn1Cc1ccc(Cl)cc1 | > 42 µM (inactive) |
| N=c1ncn(CC(O)CO)c2nc(N3CCOCC3)[nH]c12 (stereo not given) | > 42 µM (inactive) |
| Fc1ccc2nc(C3CCN(Cc4nc(CC5CC5)no4)CC3)[nH]c2c1 | > 42 µM (inactive) |
| CCOC(=O)C1=Nc2ccccc2C1=[N+]=[N-] | > 42 µM (inactive) |
| COc1cccc(NC(=S)NC(=O)c2cncc(Br)c2)c1 | > 42 µM (inactive) |

| Structure (SMILES) | AC50 |
| --- | --- |
| CC(=O)c1ccc(N=C2SCCCN2C(=O)C2CCCC2)cc1 | > 42 µM (inactive) |
| Cc1cccc(OCCC(=O)Nc2ccc(F)c(F)c2)c1 | > 42 µM (inactive) |
| CCN(CC)C(=O)CSC(Nc1cccc(F)c1)=C(C#N)C#N | > 42 µM (inactive) |
| COc1cc(C(=O)OCC(=O)NCc2ccccc2)cc(NC(=O)c2ccco2)c1OC | > 42 µM (inactive) |
| CCOC(=O)c1cc(C#N)c(Oc2ccccc2OC)nc1-c1ccccc1 | > 42 µM (inactive) |
| CCCc1nn2c(=O)cc(CSCC(=O)Nc3ccc(OC)cc3)nc2s1 | > 42 µM (inactive) |
| O=C(/C=C/c1ccc(Cl)cc1Cl)Nc1cccc(S(=O)(=O)NC2=NCCCCC2)c1 | > 42 µM (inactive) |
| CCc1ccc(S(=O)(=O)NCc2cccnc2)cc1 | > 42 µM (inactive) |
| O=C1CC(N(CCc2ccccc2)C(=S)Nc2ccccc2)C(=O)N1c1ccc(F)cc1 (stereo not given) | > 42 µM (inactive) |
| CC1Cc2ccccc2N1C(=O)Cn1c(=O)cc(O)c2ccccc21 (stereo not given) | > 42 µM (inactive) |
| FC(F)(F)c1nc2ccccc2n2c(-c3ccc(Cl)cc3Cl)nnc12 | > 42 µM (inactive) |
| COC(=O)CSc1ccc(S(=O)(=O)N2CCCCCC2)cc1[N+](=O)[O-] | > 42 µM (inactive) |
| Cc1ccc(NC(=O)Cn2sc3nc(C)cc(C)c3c2=O)c(Cl)c1 | > 42 µM (inactive) |
| O=C(/C=C/N1CCOCC1)c1coc2ccccc12 | > 42 µM (inactive) |
| COC(=O)C(NC(C)=O)(Nc1nc2ccc(S(C)(=O)=O)cc2s1)C(F)(F)F (stereo not given) | > 42 µM (inactive) |
| COc1cccc(/C=N/NC(=O)CCn2cnc3ccccc32)c1 | > 42 µM (inactive) |
| COc1ccc(N(C(=O)c2ccncc2)S(=O)(=O)c2ccc(F)cc2)cc1 | > 42 µM (inactive) |
| CC1CCN(CCCCOc2cccc(Br)c2)CC1 | > 42 µM (inactive) |
| CCCN1C(=O)c2[nH]nc(-c3cc(Cl)c(C)cc3O)c2C1c1ccc(O)c(OC)c1 (stereo not given) | > 42 µM (inactive) |
| Cc1c(C(=O)NC(=S)Nc2ccccc2N2CCCC2)cccc1[N+](=O)[O-] | > 42 µM (inactive) |

Source: PubChem BioAssay AID463199 (Broad Institute, 2010)
